Laboratory results taken from patent publication US9637470B2, “Treatment for substance use disorders and stress disorders” (Baylor College of Medicine, priority 2013, dated 2017).
Entries after “also recorded” stand apart in the source; their conditions may differ.

How the values were obtained:
CYP450 1A2 = CYP450 1A2 (Homo sapiens, UniProt P05177); experiment: CYP450 inhibition, 1A2; type: in vitro ADME
hERG channel = hERG channel (Homo sapiens, UniProt Q12809); experiment: hERG channel inhibition; conditions: accompanied by offsetting inhibition of other ion channels
[1] = molecular target: T1, norepinephrine transporter (Rattus norvegicus, UniProt Q63380); experiment: Monoamine uptake into rat synaptosomes, norepinephrine; type: biochemical
T1 construct: from tissue; host or cells: rat synaptosomes

σ1 = σ1 (Homo sapiens, UniProt Q99720); experiment: Receptor binding studies, sigma σ1; conditions: at 10 uM
Source text: (§1) Binding at σ1 is not problematic, as SSRIs are known to have similar activities.

rats = experiment: Self-administration in rats (abuse potential); conditions: doses up to 10 mg/kg/infusion, cocaine positive control
healthy volunteers = experiment: Single ascending dose study in healthy volunteers; type: in vivo, human
Protocol: A single ascending dose, double-blind, placebo controlled study enrolled 50 participants divided into 10 per dosing group. In each group of 10 volunteers, 7 received active medication and 3 received placebo. The doses tested were 10, 25, 75, 150, and 300 mg. […] Across most doses, the elimination half-life was […].

[2] = Chronic (13 week) toxicity testing in dogs; conditions: dog, in vivo, read-out: no adverse effects level (NOAEL)
AMES = experiment: Genotoxicity testing, AMES
[3] = molecular target: recombinant human dopamine transporter protein (DAT) (Homo sapiens, UniProt Q01959); experiment: IC50 binding profile, competitive inhibition assay, DAT
Protocol: Amitifadine and DOV 102,677 are enantiomers and differ only in the stereochemistry of the cyclopropyl pyrrolidine carbon to which the dichlorophenyl group is bonded. In addition to the structural differences, the compounds differ greatly in their IC50 binding profiles at the three corresponding monoamine transporter proteins. The IC50 binding profiles were measured for each of the compounds in Table 5 by competitive inhibition assays using recombinant human serotonin transporter protein, recombinant human norepinephrine transporter protein, and recombinant human dopamine transporter protein Compounds were screened at a range of concentrations and were fit to a curve to determine IC50 values, the concentration at which 50% inhibition occurs.

PK parameters in mouse = conditions: in vivo
[4] = PK, distribution and excretion in rat; type: in vivo; conditions: for half-life: in vivo
CYP 2B6 = experiment: CYP induction, 2B6; type: in vitro ADME
5-HT2B = 5-HT2B (Homo sapiens, UniProt P41595); experiment: Functional activity at 5-HT2B receptor
Source text: as §1

locomotor activity = experiment: Locomotor activity, screening test for stimulant-like effects; conditions: in vivo
Sprague-Dawley rats = experiment: Methamphetamine-induced locomotor activation in rats; type: in vivo, rat; conditions: for locomotor activity, EC2 alone versus saline: 30.0 mg/kg IP; for METH-induced locomotor activation: EC2 30.0 mg/kg IP + METH 1 mg/kg
Source text: Adult male Sprague-Dawley rats (n=5-6/group, Harlan Sprague-Dawley Inc., Indianapolis, Ind., USA) were used in this study. Rats were housed three per cage in polypropylene cages in a temperature- and humidity-controlled room maintained on a 12:12 light/dark cycle (lights on at 7:00). Food and water were available ad libitum. Protocols were approved by the Baylor College of Medicine Institutional Animal Care and Use Committee and followed the “Principles of Laboratory Animal Care” (NIH publication No. 85-23, revised 1996). Facilities were accredited by the American Association of Laboratory Animal Care.
The TruScan photobeam activity system (Coulbourn Instruments, Allentown, Pa., USA) was used to measure horizontal and vertical distance traveled in centimeters (cm). This system includes a clear arena (16″L×16″W×15.5″D) that had two sets of infrared sensors with one located at floor level and the other 2.5″ above floor level. Data from beam breaks were tabulated and analyzed by a PC computer and using a Coulbourn Instruments software system (TruScan 2.03).
Drug solutions were prepared fresh daily. To test the effects of EC2 on METH locomotor activation, groups of rats were administered vehicle (saline), METH (1 mg/kg), EC2 (30.0 mg/kg) and EC2+METH. Pretreatment time was 30 min for EC2.
Testing began on the next day (day 1) and continued for the next five days. Rats were administered drugs according to group and immediately placed in the activity chambers for 60 min.
Data were first assessed with normality (Shapiro-Wilk) and equal variance tests. Distance traveled (cm), which reflects ambulatory activity, and vertical distance (cm) were the primary dependent variables analyzed. Habituation locomotor activity (baseline habituation, HAB) was assessed using a One-Way ANOVA with treatment as the main factor, and Student-Newman-Keuls Method was used for post-hoc comparisons. […] Dunn's method was used for post-hoc multiple comparisons between groups. Data are presented as mean±SEM and significant p values set at <0.05.
The preceding example was continued for 5 days. Data from day 5 passed normality and equal variance tests and were analyzed with One-Way ANOVA with treatment as the main factor. Post-hoc pairwise multiple comparison procedures were performed using Student-Newman Keuls Method was used to determine group differences. Data are presented as mean±SEM and significant p values set at <0.05.

mouse lymphoma = experiment: Genotoxicity testing, mouse lymphoma chromosome aberration
serotonin transporter = molecular target: T2, serotonin transporter (Rattus norvegicus, UniProt P31652); experiment: Monoamine uptake into rat synaptosomes, serotonin; type: biochemical
T2 construct: from tissue; host or cells: rat synaptosomes

CYP450 2C8 = CYP450 2C8 (Homo sapiens, UniProt P10632); experiment: CYP450 inhibition, 2C8; type: in vitro ADME
PK parameters in dog = conditions: in vivo

hERG channel, sequence (Q12809 whole entry): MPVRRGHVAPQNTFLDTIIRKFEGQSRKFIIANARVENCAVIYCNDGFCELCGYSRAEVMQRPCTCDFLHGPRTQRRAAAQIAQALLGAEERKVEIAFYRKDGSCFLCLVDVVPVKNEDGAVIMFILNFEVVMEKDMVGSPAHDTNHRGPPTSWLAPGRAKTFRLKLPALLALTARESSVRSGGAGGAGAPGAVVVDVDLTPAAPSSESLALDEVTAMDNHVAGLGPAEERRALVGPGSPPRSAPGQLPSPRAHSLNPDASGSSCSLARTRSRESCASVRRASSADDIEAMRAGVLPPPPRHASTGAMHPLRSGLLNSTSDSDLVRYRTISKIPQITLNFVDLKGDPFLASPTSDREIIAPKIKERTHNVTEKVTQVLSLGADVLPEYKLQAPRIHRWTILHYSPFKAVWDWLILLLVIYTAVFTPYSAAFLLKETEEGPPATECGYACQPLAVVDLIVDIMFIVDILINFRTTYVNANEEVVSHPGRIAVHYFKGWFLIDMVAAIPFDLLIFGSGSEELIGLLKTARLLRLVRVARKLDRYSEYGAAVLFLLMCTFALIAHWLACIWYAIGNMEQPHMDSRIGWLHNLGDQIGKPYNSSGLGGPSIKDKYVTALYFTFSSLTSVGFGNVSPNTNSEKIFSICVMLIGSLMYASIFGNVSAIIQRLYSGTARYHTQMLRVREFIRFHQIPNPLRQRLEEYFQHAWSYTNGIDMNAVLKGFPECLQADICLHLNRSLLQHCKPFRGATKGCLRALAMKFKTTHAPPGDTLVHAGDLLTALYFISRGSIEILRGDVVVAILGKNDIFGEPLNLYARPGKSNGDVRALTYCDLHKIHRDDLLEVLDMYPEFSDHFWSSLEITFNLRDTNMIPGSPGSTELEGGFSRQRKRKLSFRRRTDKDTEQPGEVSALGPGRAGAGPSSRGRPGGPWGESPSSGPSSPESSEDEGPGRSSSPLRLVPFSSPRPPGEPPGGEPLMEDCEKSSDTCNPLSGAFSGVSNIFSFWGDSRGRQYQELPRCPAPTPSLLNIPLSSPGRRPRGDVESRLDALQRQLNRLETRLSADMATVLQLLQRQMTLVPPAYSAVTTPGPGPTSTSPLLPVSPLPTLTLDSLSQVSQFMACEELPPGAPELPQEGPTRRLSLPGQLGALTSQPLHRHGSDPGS
T2 sequence (P31652 whole entry): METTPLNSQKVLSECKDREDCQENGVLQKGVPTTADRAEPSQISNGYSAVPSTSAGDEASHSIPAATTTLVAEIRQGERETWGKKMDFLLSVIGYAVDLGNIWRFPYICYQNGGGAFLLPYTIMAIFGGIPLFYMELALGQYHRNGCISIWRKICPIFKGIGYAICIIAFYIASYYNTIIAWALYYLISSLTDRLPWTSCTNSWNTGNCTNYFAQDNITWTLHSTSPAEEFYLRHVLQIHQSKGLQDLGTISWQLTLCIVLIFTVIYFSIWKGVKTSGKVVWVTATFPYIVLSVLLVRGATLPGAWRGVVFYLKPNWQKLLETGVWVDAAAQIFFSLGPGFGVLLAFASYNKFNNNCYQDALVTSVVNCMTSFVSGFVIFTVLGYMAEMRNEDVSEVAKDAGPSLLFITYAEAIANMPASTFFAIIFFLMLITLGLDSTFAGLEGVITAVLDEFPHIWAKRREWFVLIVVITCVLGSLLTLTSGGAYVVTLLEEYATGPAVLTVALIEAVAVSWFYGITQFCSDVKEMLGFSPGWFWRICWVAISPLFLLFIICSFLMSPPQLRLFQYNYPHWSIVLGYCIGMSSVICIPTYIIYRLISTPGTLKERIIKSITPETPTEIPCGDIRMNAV
σ1, sequence (Q99720 whole entry): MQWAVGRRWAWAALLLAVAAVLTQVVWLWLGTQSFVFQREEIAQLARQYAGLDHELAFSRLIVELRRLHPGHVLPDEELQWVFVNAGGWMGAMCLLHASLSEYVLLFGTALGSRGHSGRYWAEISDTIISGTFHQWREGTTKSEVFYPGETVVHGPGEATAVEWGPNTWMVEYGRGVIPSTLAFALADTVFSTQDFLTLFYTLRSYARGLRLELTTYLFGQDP
CYP450 1A2, sequence (P05177 whole entry): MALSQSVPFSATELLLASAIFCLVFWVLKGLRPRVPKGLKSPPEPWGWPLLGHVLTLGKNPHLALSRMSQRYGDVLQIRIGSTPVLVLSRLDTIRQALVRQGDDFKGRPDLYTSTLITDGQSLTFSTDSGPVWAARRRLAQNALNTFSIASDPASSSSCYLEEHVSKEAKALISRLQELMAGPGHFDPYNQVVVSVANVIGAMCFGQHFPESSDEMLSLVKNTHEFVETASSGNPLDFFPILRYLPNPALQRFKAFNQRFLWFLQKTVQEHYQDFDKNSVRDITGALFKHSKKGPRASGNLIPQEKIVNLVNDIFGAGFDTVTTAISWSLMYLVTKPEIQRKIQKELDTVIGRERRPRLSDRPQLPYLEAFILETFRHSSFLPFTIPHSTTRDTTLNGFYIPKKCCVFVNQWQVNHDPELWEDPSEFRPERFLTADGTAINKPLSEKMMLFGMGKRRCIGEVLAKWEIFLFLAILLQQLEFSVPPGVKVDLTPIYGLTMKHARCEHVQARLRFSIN
T1 sequence (Q63380 1-617): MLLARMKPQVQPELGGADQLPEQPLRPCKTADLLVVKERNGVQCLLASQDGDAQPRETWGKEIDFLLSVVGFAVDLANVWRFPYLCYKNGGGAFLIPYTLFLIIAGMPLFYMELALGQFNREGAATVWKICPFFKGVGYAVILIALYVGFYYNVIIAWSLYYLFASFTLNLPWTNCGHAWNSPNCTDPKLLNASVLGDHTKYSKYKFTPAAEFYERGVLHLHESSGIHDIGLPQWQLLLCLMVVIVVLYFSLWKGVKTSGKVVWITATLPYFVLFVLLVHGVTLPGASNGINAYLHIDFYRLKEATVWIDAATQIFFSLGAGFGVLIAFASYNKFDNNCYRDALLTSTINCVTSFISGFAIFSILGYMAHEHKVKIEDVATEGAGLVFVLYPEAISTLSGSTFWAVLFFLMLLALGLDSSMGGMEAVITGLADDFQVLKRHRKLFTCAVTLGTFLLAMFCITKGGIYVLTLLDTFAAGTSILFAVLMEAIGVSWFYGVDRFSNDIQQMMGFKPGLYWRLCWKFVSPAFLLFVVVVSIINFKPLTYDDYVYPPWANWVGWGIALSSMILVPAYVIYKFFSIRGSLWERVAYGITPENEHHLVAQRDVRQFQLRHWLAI
recombinant human dopamine transporter protein (DAT), sequence (Q01959 whole entry): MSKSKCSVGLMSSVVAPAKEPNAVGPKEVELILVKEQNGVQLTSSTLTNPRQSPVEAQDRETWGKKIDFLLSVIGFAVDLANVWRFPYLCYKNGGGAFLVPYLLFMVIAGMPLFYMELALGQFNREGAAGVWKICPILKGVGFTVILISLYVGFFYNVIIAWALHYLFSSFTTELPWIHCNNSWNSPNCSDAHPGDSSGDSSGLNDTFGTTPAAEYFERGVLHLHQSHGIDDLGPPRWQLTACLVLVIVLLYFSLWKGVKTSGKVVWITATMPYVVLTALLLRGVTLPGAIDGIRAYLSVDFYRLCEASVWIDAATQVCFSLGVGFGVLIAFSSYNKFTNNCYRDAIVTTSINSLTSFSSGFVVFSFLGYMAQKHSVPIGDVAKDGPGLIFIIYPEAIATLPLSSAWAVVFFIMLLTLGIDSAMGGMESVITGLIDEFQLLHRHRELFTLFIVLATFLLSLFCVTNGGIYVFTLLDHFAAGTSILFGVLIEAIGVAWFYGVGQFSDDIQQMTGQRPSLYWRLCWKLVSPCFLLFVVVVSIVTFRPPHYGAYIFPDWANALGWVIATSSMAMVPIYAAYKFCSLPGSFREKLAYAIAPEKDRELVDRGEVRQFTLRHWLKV
CYP450 2C8, sequence (P10632 whole entry): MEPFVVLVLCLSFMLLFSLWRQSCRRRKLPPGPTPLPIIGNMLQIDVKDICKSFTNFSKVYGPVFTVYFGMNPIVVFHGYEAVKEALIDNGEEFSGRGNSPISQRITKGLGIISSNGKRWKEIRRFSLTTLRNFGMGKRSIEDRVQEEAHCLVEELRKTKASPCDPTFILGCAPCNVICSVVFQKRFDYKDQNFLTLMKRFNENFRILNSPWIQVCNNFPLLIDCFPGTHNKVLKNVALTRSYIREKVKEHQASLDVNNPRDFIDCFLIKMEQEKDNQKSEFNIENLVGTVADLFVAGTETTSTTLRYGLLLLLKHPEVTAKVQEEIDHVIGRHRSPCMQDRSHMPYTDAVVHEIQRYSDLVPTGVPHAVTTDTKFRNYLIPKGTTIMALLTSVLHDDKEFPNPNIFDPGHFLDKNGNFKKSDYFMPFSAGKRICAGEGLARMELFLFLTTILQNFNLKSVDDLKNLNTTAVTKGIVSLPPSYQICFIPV
5-HT2B, sequence (P41595 whole entry, species assumed): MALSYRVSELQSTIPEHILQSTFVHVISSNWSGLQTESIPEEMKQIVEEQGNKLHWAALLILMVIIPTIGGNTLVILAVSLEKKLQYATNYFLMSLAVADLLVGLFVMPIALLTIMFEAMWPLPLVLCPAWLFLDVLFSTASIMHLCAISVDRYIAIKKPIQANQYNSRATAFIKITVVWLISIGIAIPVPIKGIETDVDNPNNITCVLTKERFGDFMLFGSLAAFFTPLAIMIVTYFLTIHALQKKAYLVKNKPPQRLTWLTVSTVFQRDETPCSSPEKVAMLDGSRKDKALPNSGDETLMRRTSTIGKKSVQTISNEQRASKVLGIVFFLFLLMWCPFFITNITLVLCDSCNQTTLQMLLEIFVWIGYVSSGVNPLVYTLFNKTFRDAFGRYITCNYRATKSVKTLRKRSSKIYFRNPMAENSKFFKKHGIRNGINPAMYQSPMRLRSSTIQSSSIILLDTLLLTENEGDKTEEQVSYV

Q: Which “inhibition of CYP450 1A2” value (CYP450 1A2) does the source give for c1ccc2cc([C@H]([C@H]3CCCNC3)n3ncnn3)ccc2c1 [Example Compound 2, (3S)-3-[(S)-naphthalen-2-yl(2H-tetrazol-2-yl)methyl]piperidine] here?
A: does not inhibit

Q: And the hERG channel inhibition (hERG channel)?
A: moderate

Q: And the IC50 [1]?
A: 65 nM

Q: And the “inhibition of binding at σ1” value (σ1)?
A: 74 % inhibition

Q: What about the self-administration (rats) of the same compound?
A: not self-administered

Q: And the “plasma concentration versus dose” value (healthy volunteers; single dose 10, 25, 75, 150, and 300 mg)?
A: proportional to dose

Q: What about the primary adverse effects (healthy volunteers; single dose, increasing in prevalence at 75 mg and higher) of the same compound?
A: nausea, dizziness, and headache

Q: And the safety (healthy volunteers; single doses up to 300 mg)?
A: safe

Q: What about the NOAEL at 13 week [2] of the same compound?
A: 6 mg/kg

Q: What about the “genotoxicity, AMES” value (AMES) of the same compound?
A: negative

Q: And the IC50 [3]?
A: 11 nM

Q: What about the half-life (PK parameters in mouse) of the same compound?
A: 1.9 h

Q: What about the Kp ([4]; brain, rat, after oral dosing, read-out: AUC ratio (brain/plasma)) of the same compound?
A: 0.45

Q: And the accumulation in tissue ([4]; rat, after oral administration)?
A: does not accumulate; also recorded: without significant accumulation

Q: And the tissue distribution ([4]; rat, after oral administration)?
A: widely distributed across most tissues

Q: What about the half-life ([4]; rat, T1/2) of the same compound?
A: 3.7 h

Q: What about the half-life ([4]; rat, po, elimination half-life in brain) of the same compound?
A: 12.6 h

Q: What about the half-life ([4]; rat, po, elimination half-life in plasma) of the same compound?
A: 5 h

Q: And the route of excretion ([4]; rodents)?
A: mainly excreted in feces

Q: And the “induction of CYP 2B6” value (CYP 2B6)?
A: does not induce

Q: And the “activity at 5-HT2B receptor” value (5-HT2B)?
A: antagonist activity

Q: What about the “increases in locomotor activity” value (locomotor activity) of the same compound?
A: does not cause increases

Q: And the “locomotor activity, EC2 alone versus saline” value (Sprague-Dawley rats; day 5, both activity measures)?
A: did not differ from saline

Q: And the “locomotor activity, EC2 alone versus saline” value (Sprague-Dawley rats; over 5 days, both activity measures)?
A: did not differ from saline

Q: What about the METH-induced locomotor activation (Sprague-Dawley rats; day 5, more apparent on vertical distance) of the same compound?
A: significantly attenuated

Q: What about the METH-induced locomotor activation (Sprague-Dawley rats; over 5 days, more apparent on vertical distance) of the same compound?
A: significantly attenuated

Q: What about the “genotoxicity, mouse lymphoma chromosome aberration” value (mouse lymphoma) of the same compound?
A: negative

Q: And the IC50 (serotonin transporter)?
A: 37 nM

Q: And the “inhibition of CYP450 2C8” value (CYP450 2C8)?
A: does not inhibit

Q: What about the half-life (PK parameters in dog) of the same compound?
A: 2 h

Q: What about the bioavailability (PK parameters in dog; po, dogs) of the same compound?
A: 45%
